Here are results for three compounds from PMC11672724, “Antiparasitic Activities of Acyl Hydrazones from Cinnamaldehydes and Structurally Related Fragrances” (Antibiotics, 2024).

A word on the IC50: it is the concentration that gives 50% inhibition. A word on the melting point: it is the temperature of the solid-liquid transition.

One series relates to macrophages. As to the kind of experiment: Macrophage cytotoxicity (MTT assay, 72 h). In kind it is cell-based, BALB/c mice. Particulars: Mus musculus, IC50 ± SD. As to the method:
Plates were incubated for 24 h at 37 °C in a 5% CO2 environment to allow infection and amastigote differentiation. Infected cells were then washed with PBS and overlaid with RPMI 1640 medium containing the test compounds at the same concentrations as applied for the experiments with promastigotes, followed by incubation at 37 °C and 5% CO2 for 72 h. […] The percentage of infected macrophages was determined microscopically after fixation, Giemsa staining, and medium removal. IC50 values were calculated from three independent experiments. To assess the test compounds’ cytotoxicity, MTT assays were performed. […] Negative control cells were only given media with 2% FBS and 1% DMSO. The cells were cultured for 4 h after the supernatant was disposed of, and 50 μL of RPMI 1640 media containing 14 μL MTT (5 mg/mL) was added. After removing the supernatant once again, 150 μL of DMSO was added. IC50 values were determined from three independent experiments.
(Tetrazolium assays rely on reduction of a dye to a coloured formazan, in cell work by metabolically active cells.)

Series [1] deals with T. gondii RH strain tachyzoites. Briefly: Toxoplasma gondii cells drug testing assay (infection index in Vero cells, 72 h). In kind it is cell-based. Particulars: for IC50: Toxoplasma gondii, Vero, IC50 ± SD, three independent experiments, 72 h. The method, then:
Cells of the Vero cell line (ATCC® CCL81™, Manassas, VA, USA) were used to cultivate T. gondii RH strain tachyzoites. Vero cells were maintained in complete RPMI 1640 medium (Thermo Fisher Scientific, Waltham, MA, USA). For cell cultivation, 96-well plates were prepared with 5 × 10^3 cells per well in 200 μL of RPMI 1640 medium, then incubated at 37 °C and 5% CO2 for 24 h. The medium was then removed, and cells were washed with phosphate-buffered saline (PBS). Next, RPMI 1640 medium with 2% FBS and parasites at a 5:1 parasite-to-cell ratio were added. After a 5 h incubation at 37 °C and 5% CO2, cells were washed with PBS and subjected to further treatments. […] After incubation at 37 °C and 5% CO2 for 72 h, cells were washed with PBS, fixed in 10% formalin, and stained with 1% toluidine blue. An inverted photomicroscope was used to assess cell infection and to determine the infection index (number of infected cells out of 200 counted cells). The inhibition percentage was calculated as follows:Inhibition (%) = [(I Control − I Experimental)/I Control] × 100 where “I Control” represents the infection index of untreated cells, and “I Experimental” represents the infection index of cells treated with test compounds. The effects of the compounds on parasite growth are expressed as IC50 values derived from three independent experiments.

The test system of the next series is L. major amastigotes. Briefly: Leishmania major amastigotes in peritoneal macrophages (percentage of infected macrophages, 72 h). In kind it is cell-based. Particulars: Macrophage, IC50 ± SD. As to the method: (§1) Promastigotes of L. major were obtained from a patient (February 2016) and cultured at 26 °C in Schneider’s Drosophila medium (Invitrogen, Carlsbad, CA, USA) supplemented with 10% heat-inactivated fetal bovine serum (FBS, Invitrogen, USA) and antibiotics, with weekly transfers in a tissue culture flask. Promastigotes were cryopreserved in liquid nitrogen at a concentration of 3 × 10^6 parasites/mL. Virulent L. major parasites were maintained by serial passage in female BALB/c mice, achieved by injecting hind footpads with 1 × 10^6 stationary-phase promastigotes. Amastigotes were isolated from the mice after 8 weeks, then converted to promastigotes by cultivation at 26 °C in Schneider’s medium containing 10% FBS and antibiotics. Amastigote-derived promastigotes, which underwent several in vitro passages, were used for the infection studies. BALB/c mice (both male and female) were provided by the Pharmaceutical College, King Saud University, Kingdom of Saudi Arabia, and housed in specific pathogen-free conditions following the ethical guidelines of the Qassim University Research Ethics Committee (permission number: 20-03-20).
Activity against amastigotes in macrophages was evaluated using peritoneal macrophages, which were harvested from 6–8-week-old BALB/c mice of different sex, and plated at 5 × 10^4 cells/well in 96-well plates containing phenol-red-free RPMI 1640 medium with 10% FBS. After 4 h at 37 °C and 5% CO2 to promote adhesion, cells were washed with PBS, and 200 μL of an L. major promastigote solution (10 promastigotes per macrophage) was added. Plates were incubated for 24 h at 37 °C in a 5% CO2 environment to allow infection and amastigote differentiation. Infected cells were then washed with PBS and overlaid with RPMI 1640 medium containing the test compounds at the same concentrations as applied for the experiments with promastigotes, followed by incubation at 37 °C and 5% CO2 for 72 h. […] IC50 values were calculated from three independent experiments.

The next series deals with Vero monkey kidney cells. As to the kind of experiment: Vero cell cytotoxicity (MTT assay, 72 h). In kind it is cell-based. Particulars: Primates, IC50 ± SD. The method, then: To assess the test compounds’ cytotoxicity, MTT assays were performed. The Vero cells and macrophages were cultivated for 24 h at 37 °C in RPMI 1640 media with 10% FBS and 5% CO2 in 96-well plates (5 × 10^3 cells/well/200 μL). Following a washing step with PBS, the cells were treated with test compounds at different concentrations (50, 25, 12.5, 6.25, 3.13, 1.65, and 0.75 μg /mL) in 10% FBS medium for 72 h. Negative control cells were only given media with 2% FBS and 1% DMSO. The cells were cultured for 4 h after the supernatant was disposed of, and 50 μL of RPMI 1640 media containing 14 μL MTT (5 mg/mL) was added. After removing the supernatant once again, 150 μL of DMSO was added. IC50 values were determined from three independent experiments.

A further series deals with L. major promastigotes. As to the kind of experiment: Leishmania major promastigote assay (MTT, 72 h). The format is cell-based. The settings on record: for IC50: IC50 ± SD, MTT, 72 h. As to the method: as §1
L. major promastigotes in the logarithmic phase were cultured in phenol-red-free RPMI 1640 medium (Invitrogen, USA) with 10% FBS in 96-well plates at 10^6 cells/mL (200 μL/well, counted with a hemocytometer). Test compounds were added at final concentrations of 50, 25, 12.5, 6.25, 3.13, 1.65, and 0.75 μg/mL. […] After incubation at 26 °C for 72 h, viable promastigotes were counted using an MTT colorimetric assay. The formed formazan was dissolved in a detergent and the absorbance was measured at 570 nm using an ELISA reader. IC50 values were derived from three independent experiments.

`CC(C)Cc1ccc(CC(C)/C=N/NC(=O)c2cccc(Cl)c2)cc1` (stereo not drawn) [Compound 3f, N′-2-Methyl-3-[4-(2-methylpropyl)phenyl]propanylidene-3-chlorobenzoylhydrazide] showed a melting point of 88 to 89 °C. Besides, the IC50 in the series with macrophages is > 56 µM. Also, the midpoint of inhibition in series [1], the IC50, lay at 22 ± 3.3 µM. For the same compound, the “SI = selectivity index (Vero/T. gondii)” value in series [1] (ratio IC50 Vero / IC50 T. gondii) is recorded as 2.3. Also, the IC50 in the series with L. major amastigotes was > 56 µM. For the same compound, the midpoint of inhibition in the series with Vero monkey kidney cells, the IC50, lay at 50.2 ± 7.7 µM. In the series with L. major promastigotes, this compound showed an IC50 of 29.1 ± 3.3 µM. Moreover, the IC50 in the series with L. major promastigotes (Leishmania major) was < 30 µM. For the same compound, in the series on L. major promastigotes (ratio IC50 macrophages / IC50 promastigotes), the “SI (promastigotes) = selectivity index (macrophages/L. major promastigotes)” value is listed as >1.9.

On to `CC(C)Cc1ccc(CC(C)/C=N/NC(=O)c2ccncc2)cc1` (stereo not drawn) [Compound 3g, N′-2-Methyl-3-[4-(2-methylpropyl)phenyl]propanylidene-isonicotinoylhydrazide], for which the melting point is 122 to 123 °C. In the series on macrophages, the IC50 is > 61.8 µM. The IC50 in series [1] came to 60.6 ± 10.1 µM. In the series on L. major amastigotes, the IC50 is > 61.8 µM. Besides, in the series on Vero monkey kidney cells, the IC50 is > 61.8 µM. In the series with L. major promastigotes (Leishmania major), the IC50 is > 61.8 µM.

`CC(C)c1cccc(C(C)C/C=N/NC(=O)c2cccc(O)c2)c1` (stereo not drawn) [Compound 4c, N′-3-(3-Isopropylphenyl)butanylidene-3-hydroxybenzoylhydrazide] yielded a melting point of 196 to 197 °C. The IC50 with macrophages was > 61.7 µM. Further, the IC50 in series [1] was > 61.7 µM. Further, the IC50 in the series with L. major amastigotes is > 61.7 µM. This compound also registered an IC50 in the series on Vero monkey kidney cells of 29.1 ± 2.6 µM. In the series on L. major promastigotes (Leishmania major), the IC50 is > 61.7 µM.
